{
  "source": "patent US20240108598A1",
  "about": "“Danegaptide for Use in the Treatment or Prevention of a Kidney Disease” (CIANA THERAPEUTICS APS, priority 2021, published 2024)",
  "key": {"[1]": {"test_system": "HK2 cells", "experiment": "Lactate dehydrogenase (LDH) release assay", "assay_type": "cell-based", "settings": "48 h", "method": "(§1) HK2 cells were cultured in low glucose (5 mM) for 48 h, prior to being serum-starved overnight and subsequently treated with TGFβ1 (10 ng/mL)±danegaptide (50 nM-1 μM) for 48 h (FIG. 1A, n=3).\nThe release of lactate dehydrogenase (LDH) into media as a result of plasma membrane damage is commonly used to evaluate cell death or cytotoxicity. HK2 cells were seeded in 96-well plates and cultured in low glucose DMEM/F12 (5 mM) for 48 h, prior to overnight serum-starvation. Cells were then stimulated for 48 h with TGFβ1 (10 ng/ml)±danegaptide (50-1000 nM). The LDH-cytotoxicity assay kit II (Abcam) was used to quantify LDH according to the manufacturer's instructions."}, "[2]": {"test_system": "HK2 cells", "experiment": "Crystal violet assay", "assay_type": "cell-based, human", "settings": "48 h", "method": "as §1\nThis simple assay was used to measure the relative density of adhered cells to multi-well dishes. Crystal Violet stains DNA and can be quantified colourmetrically after solubilisation. HK2 cells were seeded in 12-well plates and cultured in low glucose DMEM/F12 (5 mM) for 48 h, prior to overnight serum-starvation, then subsequently stimulated for 48 h with TGFβ1 (10 ng/ml)±danegaptide (50-1000 nM). The assay has been described previously (Hills, C. E.; Jin, T.; Siamantouras, E.; Liulssac, I. K. K.; Jefferson, K. P.; Squires, P. E. “Special K” and a Loss of Cell-To-Cell Adhesion in Proximal Tubule-Derived Epithelial Cells: Modulation of the Adherens Junction Complex by Ketamine. PLoS One 2013, 8, e71819). Briefly, cells were fixed using paraformaldehyde for 10 mins, washed with PBS and incubated for 10 mins at RT in a 1% crystal violet solution. After several more washes, the stain was solubilised using 1% SDS, and absorbance measured by a plate reader."}, "[3]": {"test_system": "primary hPTECs", "experiment": "Western blotting of adherens and tight junction proteins", "assay_type": "cell-based, human", "settings": "48 h", "method": "(§2) Primary hPTECs were cultured in low (5 mM) glucose±TGFβ1 (10 ng/mL)±danegaptide (100 nM) for 48 h. Expression of E-cadherin (ECAD), N-cadherin (NCAD) and vimentin (panel A), and Claudin-2 and Zonula Occludens (ZO-1) and b-catenin (panel B) were assessed via western blotting. TGFβ1 reduced E-cadherin, Claudin-2 and ZO-1 expression and increased N-cadherin and vimentin expression (**P<0.01, ***P<0.001; mean±SEM, n=3). Effects were partially or completely reversed by danegaptide (100 nM; ▴P<0.05 and ▴▴▴P<0.001; mean±SEM, n=3). Representative blots for each protein are shown, with expression normalised by re-probing for α-tubulin as a loading control. In panel C, transepithelial electrical resistance (TER) assessed the consequence of altered adherens & tight-junction protein expression on epithelial integrity. HK2 cells were cultured in low (5 mM) glucose on transwell inserts and transepithelial resistance measured.\nTo determine if danegaptide can negate TGFβ1-mediated changes in adherens and tight junction proteins, hPTECs were incubated with TGFβ1 (10 ng/mL)±danegaptide (100 nM) for 48 h and expression of candidate proteins assessed by Western blotting. Preparation of cytosolic protein from HK2 and HPTEC cells, their separation by SDS-gel electrophoresis and transfer onto Immobilon-FI PVDF membranes have been described previously (Price, G. W.; Chadjichristos, C. E.; Kavvadas, P.; Tang, S. C. W.; Yiu, W. H.; Green, C. R.; Potter, J. A.; Siamantouras, E.; Squires, P. E.; Hills, C. E. Blocking Connexin-43 mediated hemichannel activity protects against early tubular injury in experimental chronic kidney disease. Cell Commun. Signal. 2020, 18). Membranes were blocked using Odyssey blocking buffer (LI-COR), then probed overnight with antibodies against E-cadherin (1:1000), N-cadherin (1:1000), claudin-2 (1:500) and ZO-1 (1:1000), Col I (1:1000), Col IV (1:2000), Fibronectin (1:4000), Laminin (1:500), ILK1 (1:500), beta-catenin (1:2000), Vimentin (1:500), MMP3 (1:500). Bands were visualised using an OdysseyFC and semi-quantified using ImageStudio (v5.2, LI-COR). Additionally, transepithelial electrical resistance (TER) was measured as a functional measure of epithelial cell-cell coupling and paracellular permeability."}, "[4]": {"test_system": "HK2 cells", "experiment": "Transepithelial electrical resistance (TER)", "assay_type": "cell-based, human", "settings": "HK2 cells on transwell inserts", "method": "as §2\nTo determine if danegaptide can negate TGFβ1-mediated changes in adherens and tight junction proteins, hPTECs were incubated with TGFβ1 (10 ng/mL)±danegaptide (100 nM) for 48 h and expression of candidate proteins assessed by Western blotting. […] Bands were visualised using an OdysseyFC and semi-quantified using ImageStudio (v5.2, LI-COR). […]"}, "[5]": {"settings": "TGFβ1 10 ng/mL + danegaptide 50 nM"}, "[6]": {"settings": "TGFβ1 10 ng/mL + danegaptide 100 nM"}, "[7]": {"settings": "TGFβ1 10 ng/mL + danegaptide 1 μM"}},
  "data": [
    {"molecule": "NCC(=O)N1C[C@H](NC(=O)c2ccccc2)C[C@H]1C(=O)O", "note": "[danegaptide, (2S,4R)-1-(2-aminoacetyl)-4-benzamidopyrrolidine2-carboxylic acid]", "values": [
      {"measurement": "LDH release compared to control", "setting": "[1]; [5]", "result": "106.4±11.6", "unit": "%"},
      {"measurement": "LDH release compared to control", "setting": "[1]; [6]", "result": "113.9±15.6", "unit": "%"},
      {"measurement": "LDH release compared to control", "setting": "[1]; [7]", "result": "113.2±4.3", "unit": "%"},
      {"measurement": "LDH release compared to control", "setting": "[1]; danegaptide alone 50 nM", "result": "104.4±4.3", "unit": "%"},
      {"measurement": "LDH release compared to control", "setting": "[1]; danegaptide alone 100 nM", "result": "95.3±4.7", "unit": "%"},
      {"measurement": "LDH release compared to control", "setting": "[1]; danegaptide alone 1 μM", "result": "92.6±3.3", "unit": "%"},
      {"measurement": "crystal violet staining, of control", "setting": "[2]; [5]", "result": "98.2±1.9", "unit": "%"},
      {"measurement": "crystal violet staining, of control", "setting": "[2]; [6]", "result": "97.5±1.8", "unit": "%"},
      {"measurement": "crystal violet staining, of control", "setting": "[2]; [7]", "result": "85.8±5.3", "unit": "%"},
      {"measurement": "crystal violet staining, of control", "setting": "[2]; danegaptide alone 50 nM", "result": "98.3±2.5", "unit": "%"},
      {"measurement": "crystal violet staining, of control", "setting": "[2]; danegaptide alone 100 nM", "result": "99.6±2.7", "unit": "%"},
      {"measurement": "crystal violet staining, of control", "setting": "[2]; danegaptide alone 1 μM", "result": "98.5±2.2", "unit": "%"},
      {"measurement": "Claudin-2 expression, of control", "setting": "[3]; [6]", "result": "74.6±5", "unit": "%"},
      {"measurement": "E-cadherin (ECAD) expression, of control", "setting": "[3]; [6]", "result": "89±7.6", "unit": "%"},
      {"measurement": "N-cadherin (NCAD) expression, of control", "setting": "[3]; [6]", "result": "161.9±27.4", "unit": "%"},
      {"measurement": "ZO-1 expression, of control", "setting": "[3]; [6]", "result": "52.8±5.4", "unit": "%"},
      {"measurement": "vimentin expression, of control", "setting": "[3]; [6]", "result": "147.3±8.8", "unit": "%"},
      {"measurement": "Beta-catenin expression, of control", "setting": "[3]; TGFβ1+danegaptide 100 nM", "result": "151.6±16.8", "unit": "%"},
      {"measurement": "transepithelial resistance", "setting": "[4]; [6]", "result": "36±2.08 Ω·cm2"}
    ]},
    {"molecule": "TGFβ1: Recombinant hTGFβ1 (Sigma); pro-fibrotic cytokine used to stimulate the cells [reference compound]", "values": [
      {"measurement": "LDH release compared to control", "setting": "[1]; TGFβ1 10 ng/mL alone", "result": "109.3±11.3", "unit": "%"},
      {"measurement": "Claudin-2 expression, of control", "setting": "[3]; TGFβ1 10 ng/mL alone", "result": "44.5±5", "unit": "%"},
      {"measurement": "E-cadherin (ECAD) expression, of control", "setting": "[3]; TGFβ1 10 ng/mL alone", "result": "33.3±3.3", "unit": "%"},
      {"measurement": "N-cadherin (NCAD) expression, of control", "setting": "[3]; TGFβ1 10 ng/mL alone", "result": "224.4±29.6", "unit": "%"},
      {"measurement": "ZO-1 expression, of control", "setting": "[3]; TGFβ1 10 ng/mL alone", "result": "27.8±11.3", "unit": "%"},
      {"measurement": "vimentin expression, of control", "setting": "[3]; TGFβ1 10 ng/mL alone", "result": "212.9±13", "unit": "%"},
      {"measurement": "Beta-catenin expression, of control", "setting": "[3]; TGFβ1 alone", "result": "149.2±11.2", "unit": "%"},
      {"measurement": "transepithelial resistance", "setting": "[4]; TGFβ1 10 ng/mL alone", "result": "10±1.53 Ω·cm2"}
    ]}
  ]
}
